“And” between values parts separate entries of the source, which are not always exact repeats. Equal entries are not always repeated.
Tests used:
[1] = host hepatocyte viability in the P. cynomolgi assay; assay type: cell-based, rhesus; settings: rhesus monkey; radical cure mode; read-out: cytotoxicity CC50
Method: The liver-stage P. cynomolgi assay was designed to identify anti-hypnozoite drugs utilizing a 384-well in vitro culture system[31],[37]. Briefly, cryopreserved primary simian hepatocytes (donor lots XGB, OQB, and QHO: BioIVT, Inc.) were seeded in collagen-coated 384-well plates and infected with P. cynomolgi bastianellii (B strain) sporozoites dissected from infected Anopheles dirus mosquitoes. Test compounds were solubilized in 100% DMSO and serially diluted 2-fold to generate up to a 12-point dose-response curve, maintaining a final DMSO concentration of 0.1% across all wells. Two distinct treatment modes were evaluated. For the prophylactic assay, to assess the prevention of infection, compound exposure began 1-hour post-infection with daily media changes on Days 1 and 2. For the radical cure assay, to assess activity against established liver forms, drugs were administered daily from Day 4 through Day 7 post-infection. […] For readout on Day 8, plates were fixed and stained via immunofluorescence to visualize parasite forms (hypnozoites and schizonts) and hepatocyte nuclei, and images were acquired using an Operetta CLS high-content imaging system (PerkinElmer). Host hepatocyte viability was measured in parallel to determine compound toxicity. Parasite forms were automatically quantified using Harmony 4.9 software, and percent inhibition and toxicity were calculated relative to in-plate DMSO vehicle controls. IC50 and CC50 (half-maximal cytotoxic concentrations) were determined by fitting dose-response data to a four-parameter logistic (variable slope) model using a custom Python script incorporating a grid search algorithm.

[2] = tested on: P. cynomolgi hypnozoites and schizonts; set-up: method as in PMID: 21483865; settings: primary hepatocyte P. cynomolgi assays; ref PMID: 21483865; read-out: in vitro liver-stage IC50; cited from earlier work
[3] = tested on: P. falciparum NF54 oocyst development in mosquitoes; assay: standard membrane feeding assay (SMFA); assay type: in vivo, P. falciparum in Anopheles stephensi; settings: drug in blood meal
Method: The SMFA assay was performed using P. falciparum NF54 gametocytes produced in vitro[35]. P. falciparum NF54 gametocytes were grown in human blood cultured in RPMI 1640 GlutaMax medium (Gibco) supplemented with 25 mM HEPES, hypoxanthine, and human serum. De-identified human blood and serum were obtained from the Australian Red Cross Blood Service. Mature (stage V) gametocytes were quantified in Giemsa-stained blood smears. Immediately prior to infection, a feeding mixture comprising 45% human serum and 55% human blood containing 0.15% stage V gametocytes and the desired concentration of drug or vehicle control, was prepared and maintained at 37 °C. Adult female Anopheles stephensi (MR4) mosquitoes reared under the standard insectary conditions[79] were placed in mesh-topped cups and allowed to feed on the gametocyte mixtures in prewarmed glass feeders wrapped with parafilm. […] Mosquito midguts were dissected 7 days after infection, stained in 0.2% mercurochrome, and oocysts were counted using a light microscope.

[4] = 7-day repeat dose toxicology study; assay type: in vivo, Sprague Dawley rats; settings: 25, 100, 400 mg/kg daily oral for 7 days
Method: In vivo toxicology and TK studies in rats were performed at SRI International, using the well-established methods[83]–[85]. Rats were housed in microisolator cages with hardwood chip bedding (Sani-Chips; Envigo Teklad) and maintained on a 12 h light/dark cycle. Environmental conditions were controlled at 20–26 °C (68–79 °F) with 30–70% relative humidity. […] Male and female Sprague Dawley outbred rats were randomly assigned to treatment and control groups using a simple randomization procedure to ensure a balanced distribution of baseline weights across all cohorts. […] For TK studies, blood was collected from animals at 6 time points post dose on Day 1 (0.5, 1, 2, 4, 8, and 24 h) and on Day 7 (0.5, 2, 8, 24, 48, and 96 h). Drug levels were determined in collected plasma samples using bioanalytical method developed at SRI. The plasma drug level data were analyzed using Phoenix WinNonlin (version 8.3) software to perform noncompartmental data analysis.

[5] = tested on: normal and G6PD-deficient RBCs; assay: eryptosis assay (annexin-V binding, ROS, forward scatter); assay type: cell-based, human; settings: 48 h incubation
Method: In vitro evaluation of eryptosis as a marker for induced hemolytic toxicity was performed using de-identified human blood samples obtained from the Clinical Trial Center at WRAIR, using established methods[55],[81],[82]. Fresh Li-heparin-anticoagulated blood samples was centrifuged and the platelet and leukocyte-containing supernatant was removed. […] Flow cytometry was employed to estimate stimulators of eryptosis: phosphatidylserine exposure at the cell surface from annexin-V-binding, reactive oxygen species (ROS) formation from 2′,7′-dichlorodihydrofluorescein diacetate (DCFDA) dependent fluorescence, and cell volume from forward scatter. […]
After incubation under the respective experimental condition, cell suspension was washed in Ringer solution containing CaCl2 and then stained with Annexin-V-FITC at 37 °C for 15 min under protection from light. The annexin-V-abundance at the erythrocyte surface was subsequently determined on a FACS Calibur. Annexin-V-binding was measured at an excitation wavelength of 488 nm and an emission wavelength of 530 nm. […]
Oxidative stress was determined utilizing DCFDA. […] The DCFDA-loaded erythrocytes were resuspended in Ringer solution and ROS-dependent fluorescence intensity was measured at an excitation wavelength of 488 nm and an emission wavelength of 530 nm on a FACS Calibur. Subsequently, the geomean of the DCFDA dependent fluorescence was determined. […]

SMILES | CC50 at 4 days [1] [nM] | IC50 [2] [nM] | concentration that eliminated oocyst formation [3] | tolerability [4] | eryptosis as marker of hemolytic toxicity [5]
O=C1C(O)=C([C@H]2CC[C@H](c3ccc(Cl)cc3)CC2)C(=O)c2ccccc21 [ATV, atovaquone] | 3960 | ~2000 |  |  | 
O=c1c2ccc(Oc3ccc(OC(F)(F)F)cc3)cc2[nH]c2cc(Cl)cc(F)c12 [T111] |  |  | 4.0 ng/mL and 9.5 nM | well tolerated, albeit with minor clinical signs | did not show the toxicity seen with TQ

Reference: publication PMC13168289, “Potent acridone antimalarial against all three life stages of Plasmodium” (Nature Communications, 2026)
